Experimental data from patent publication US11141403B2, “Benzimidazoles and indoles as taro inhibitors” (MERCK SHARP & DOHME CORP., priority 2015, dated 2021).
Read-outs that look alike come from different tables or passages of the source.

Test system: MRSA COL (MB5393)
Experiment: TarO Inhibitor/β-Lactam Synergy Assay
Type: cell-based, Staphylococcus aureus
Conditions: 20 hours; for IC95: TarO inhibitor alone, OD600, 95% growth inhibition, read-out: MITC95 TarO inhibitor alone, Bacteria: SA_MB5393; for MITC95 TarO inhibitor + 4 μg/mL IPM; Bacteria: SA_MB5393: in combination with 4 μg/mL imipenem; for MITC95 TarO inhibitor + 4 μg/mL IPM; Bacteria: SA_MB5393 / MITC95 TarO inhibitor + 8 μg/mL DCX; Bacteria: SA_MB5393: OD600; for MITC95 TarO inhibitor + 8 μg/mL DCX; Bacteria: SA_MB5393: in combination with 8 μg/mL dicloxacillin
Protocol: The TarO inhibitor/β-lactam synergy assay was performed to measure the re-sensitization of methicillin-resistant Staphylococci bacteria (MB5393: MRSA COL) to β-lactam antibiotics by TarO inhibitors. MRSA COL is a hospital-acquired penicillinase-negative clinically isolated strain commonly used in Staphylococcus aureus studies and is fully resistant to the antimicrobial bioactivity of β-lactam antibiotics, including but not limited to imipenem and dicloxacillin. […] MRSA COL is fully refractory to β-lactam antibiotic effect at the current clinical breakpoint concentrations and as such MRSA COL is fully viable at these concentrations.
The β-lactam antibiotic concentration was fixed at the clinical breakpoint (imipenem 4 μg/ml or dicloxacillin 8 μg/ml) and the TarO inhibitors were titrated by 2 fold starting from the highest concentration of 200 μM with final DMSO concentration of 2% in the assay. 5×10^5 colony forming unit of MRSA COL in cation-adjusted Mueller Hinton broth (CAMHB) was then mixed and the assay plate was incubated for 20 hours at 37° C. without shaking. After 20 hours, the optical density at 600 nm (OD600) was read for all wells to determine relative growth of MRSA COL.

| Compound | IC95 (Staphylococcus aureus) [µM] | MITC95 TarO inhibitor + 4 μg/mL IPM; Bacteria: SA_MB5393 [µM] | MITC95 TarO inhibitor + 8 μg/mL DCX; Bacteria: SA_MB5393 [µM] | IC95 [µM] |
| --- | --- | --- | --- | --- |
| CCN(C(=O)CCn1c2cccc(C[C@H]3CCOC3)c2nc1[C@H]1CC[C@H](CC)CC1)C1CCCCC1 [Example 29, N-cyclohexyl-N-ethyl-3-{2-(trans-4-ethylcyclohexyl)-4-[(3S)-tetrahydrofuran-3-ylmethyl]-1H-benzimidazol-1-yl}propanamide] | > 200 | 1.56 | 6.25 |  |
| CC(C)(C)OC(=O)NCC1CCC(c2nc3ccccc3n2CCC(=O)NC2C[C@H]3CC[C@]2(C)C3(C)C)CC1 (stereo partly drawn) [Example 40, tert-butyl ({4-[1-(3-oxo-3-{[(1R,4R)-1,7,7-trimethylbicyclo[2.2.1]hept-2-yl]amino}propyl)-1H-benzimidazol-2-yl]cyclohexyl}methyl) carbamate] | > 200 | 2.34 | 9.38 |  |
| CCN(C(=O)CCn1c(-c2ccc(OCC(F)(F)F)cc2)nc2ccccc21)C1CCCCC1 [Example 34, N-cyclohexyl-N-ethyl-3-{2-[4-(2,2,2-trifluoroethoxy)phenyl]-1H-benzimidazol-1-yl}propanamide] | > 200 | 0.25 | 0.54 |  |
| CCN(C(=O)CCn1c(C2CCCN(c3cccc(OC)n3)C2)nc2ccccc21)C1CCCCC1 (stereo not drawn) [Example 47, N-cyclohexyl-N-ethyl-3-{2-[1-(6-methoxypyridin-2-yl)piperidin-3-yl]-1H-benzimidazol-1-yl}propanamide] | 100 | 0.10 | 0.20 |  |
| CCN(C(=O)CCn1c(C2CCC(C)N(c3nccc(OC)n3)C2)nc2ccccc21)C1CCCCC1 (stereo not drawn) [Example 50, N-cyclohexyl-N-ethyl-3-{2-[1-(4-methoxypyrimidin-2-yl)-6-methylpiperidin-3-yl]-1H-benzimidazol-1-yl}propanamide] | 100 | 0.20 | 1.56 |  |
| CCN(C(=O)CCn1c(C2CCCN(C(=O)OC(C)(C)C)C2)nc2cc(F)ccc21)C1CCCCC1 (stereo not drawn) [Example 12, tert-butyl 3-(1-{3-[cyclohexyl(ethyl)amino]-3-oxopropyl}-5-fluoro-1H-benzimidazol-2-yl)piperidine-1-carboxylate] | > 200 | 0.50 | 1.09 |  |
| CCOC(=O)N1CCCC(c2nc3cc(F)ccc3n2CCC(=O)N(CC)C2CCCCC2)C1 (stereo not drawn) [Example 18, Ethyl 3-(1-{3-[cyclohexyl(ethyl)amino]-3-oxopropyl}-5-fluoro-1H-benzimidazol-2-yl)piperidine-1-carboxylate] |  | 1.09 | 23.75 | >200 |
| CCN(C(=O)CCn1c2cc(CO)ccc2nc1[C@H]1CC[C@H](CC)CC1)C1CCCCC1 [Example 14, N-cyclohexyl-N-ethyl-3-[2-(trans-4-ethylcyclohexyl)-6-(hydroxymethyl)-1H-benzimidazol-1-yl]propanamide] | > 200 | 0.52 | 3.13 |  |
| CCN(C(=O)CCn1c2ccc(C3CC3)cc2nc1[C@H]1CC[C@H](CC)CC1)C1CCCCC1 [Example 26, N-cyclohexyl-3-[5-cyclopropyl-2-(trans-4-ethylcyclohexyl)-1H-benzimidazol-1-yl]-N-ethylpropanamide] | > 200 | 1.30 | 4.17 |  |
| CCN(C(=O)CCn1c2cccnc2nc1[C@H]1CC[C@H](CC)CC1)C1CCCCC1 [Example 2, N-cyclohexyl-N-ethyl-3-[2-(trans-4-ethylcyclohexyl)-1H-imidazo[4,5-b]pyridin-1-yl]propanamide] | > 200 | 1.88 | 18.75 |  |
